Results: patent publication US20060263502A1, “Absorbent material for use in humid conditions” (priority 2003, published 2006)

Assay: Sensitivity to moisture of tetrazine compounds in polystyrene
Type: physicochemical
Settings: 0.2M in polystyrene film about 130 μm; relative humidity 93% at 25° C.; at least 42 days; absorbance 500-550 nm
Method: The depletion of the tetrazine compound, as measured by % absorbance change, was used to indicate the sensitivity to moisture of the tetrazine compounds.
Compositions were prepared by blending the tetrazine compounds at a concentration of 0.2M into polystyrene. Each composition was then compression moulded to form a film having a thickness of about 130 μm. Each film sample was then mounted in a cell holder and the maximum absorbance between 500-550 nm measured. The cell holders containing the film samples were then placed on a mesh platform in a 550 mL squat glass jar fitted with a screw cap and polypropylene wad seal. To achieve a relative humidity of 93% at 25° C., a saturated solution of potassium nitrate covered the bottom of the jars (approx. 10 mm below the mesh platform). The jars were stored in a controlled-temperature room at 25° C.
At intervals of several days for at least 42 days, samples were in turn removed from their jars, and the maximum absorbance recorded between 500-550 nm, before immediately returning them to the controlled-temperature room in their sealed jars.

SMILES: COC(=O)c1nnc(C(=O)OC)nn1 [DMTD, dimethyl-1,2,4,5-tetrazine-3,6-dicarboxylate, reference compound]
- sensitivity to moisture (depletion of the tetrazine compound, as measured by % absorbance change): highly unstable to moisture
